Calls of active or inactive are those of the source. The rule behind the calls is not given here.
How the values were obtained:
NB-4 [1] = test: Cytotoxicity against human NB4 cells after 24 hrs by MTT assay; assay type: functional, cell-based; details: NB-4, 24 h
HL-60 [2] = test: Cytotoxicity against human HL60 cells after 24 hrs by MTT assay; assay type: functional, cell-based; details: HL-60, 24 h
HeLa [3] = test: Cytotoxicity against human HeLa cells after 24 hrs by MTT assay; assay type: functional, cell-based
SGC-7901 = test: Cytotoxicity against human SGC7901 cells after 24 hrs by MTT assay; assay type: functional, cell-based; details: SGC-7901, 24 h
NB-4 [4] = test: Cytotoxicity against human NB4 cells after 48 hrs by MTT assay; assay type: functional, cell-based; details: NB-4, 48 h
HL-60 [5] = test: Cytotoxicity against human HL60 cells after 48 hrs by MTT assay; assay type: functional, cell-based; details: HL-60, 48 h
HeLa [6] = test: Cytotoxicity against human HeLa cells after 48 hrs by MTT assay; assay type: functional, cell-based
MCF7 = test: Cytotoxicity against human MCF7 cells after 48 hrs by MTT assay; assay type: functional, cell-based; details: MCF7, 48 h
HEK293 = test: Cytotoxicity against HEK293 cells after 48 hrs by MTT assay; assay type: cell-based; details: Homo sapiens, HEK293, 48 h
NB-4 [7] = test: Induction of mitochondrial membrane potential loss in human NB4 cells at 0.6 uM after 3 hrs by JC1 staining based flow cytometry (reference value: 27.7%); assay type: functional
NB-4 [8] = test: Induction of mitochondrial membrane potential loss in human NB4 cells at 0.6 uM after 6 hrs by JC1 staining based flow cytometry (reference value: 27.7%); assay type: functional
NB-4 [9] = test: Cytotoxicity against human NB4 cells assessed as reduction in cell viability at 1 to 1.2 uM after 24 hrs in presence of DTT by trypan blue assay; assay type: functional, cell-based
NB-4 [10] = test: Cytotoxicity against human NB4 cells assessed as reduction in cell viability at 1 to 1.2 uM after 24 hrs in presence of DMP by trypan blue assay; assay type: functional, cell-based
NB-4 [11] = test: Cytotoxicity against human NB4 cells assessed as reduction in cell viability at 1 to 1.2 uM after 24 hrs in presence of DMSA by trypan blue assay; assay type: functional, cell-based
NB-4 [12] = test: Induction of mitochondrial membrane potential loss in human NB4 cells at 0.3 to 2.4 uM after 24 hrs by JC-1 staining based confocal microscopic method; assay type: functional, cell-based
Rattus norvegicus [13] = species on record: Rattus norvegicus; test: Induction of mitochondrial membrane potential loss in isolated Wistar rat mitochondria assessed as activity recovery phase rate constant at 50 uM using pyruvate as substrate up to 3 hrs by microcalorimetry; assay type: functional
Rattus norvegicus [14] = species on record: Rattus norvegicus; test: Induction of mitochondrial membrane potential loss in isolated Wistar rat mitochondria assessed as activity recovery phase rate constant at 25 uM using pyruvate as substrate up to 3 hrs by microcalorimetry (reference value: 5.15 to 7.33 10^-3/min); assay type: functional
Rattus norvegicus [15] = species on record: Rattus norvegicus; test: Induction of mitochondrial membrane potential loss in isolated Wistar rat mitochondria assessed as decline phase rate constant at 50 uM using pyruvate as substrate up to 3 hrs by microcalorimetry; assay type: functional
Rattus norvegicus [16] = species on record: Rattus norvegicus; test: Induction of mitochondrial membrane potential loss in isolated Wistar rat mitochondria assessed as decline phase rate constant at 100 uM using pyruvate as substrate up to 3 hrs by microcalorimetry; assay type: functional
Rattus norvegicus [17] = species on record: Rattus norvegicus; test: Induction of mitochondrial membrane potential loss in isolated Wistar rat mitochondria assessed as maximum power output at 100 uM using pyruvate as substrate up to 3 hrs by microcalorimetry; assay type: functional
Rattus norvegicus [18] = species on record: Rattus norvegicus; test: Induction of mitochondrial membrane potential loss in isolated Wistar rat mitochondria assessed as maximum power output at 25 uM using pyruvate as substrate up to 3 hrs by microcalorimetry (reference value: 141.64 to 153.92 W); assay type: functional
Rattus norvegicus [19] = species on record: Rattus norvegicus; test: Induction of mitochondrial membrane potential loss in isolated Wistar rat mitochondria assessed as maximum power output time at 50 uM using pyruvate as substrate up to 3 hrs by microcalorimetry; assay type: functional
Rattus norvegicus [20] = species on record: Rattus norvegicus; test: Induction of mitochondrial membrane potential loss in isolated Wistar rat mitochondria assessed as maximum power output time at 100 uM using pyruvate as substrate up to 3 hrs by microcalorimetry; assay type: functional
Rattus norvegicus [21] = species on record: Rattus norvegicus; test: Induction of mitochondrial membrane potential loss in isolated Wistar rat mitochondria assessed as total heat output at 100 uM using pyruvate as substrate up to 3 hrs by microcalorimetry; assay type: functional
Rattus norvegicus [22] = species on record: Rattus norvegicus; test: Induction of mitochondrial membrane potential loss in isolated Wistar rat mitochondria assessed as total heat output at 25 uM using pyruvate as substrate up to 3 hrs by microcalorimetry (reference value: 10.32 to 10.36 J); assay type: functional
Rattus norvegicus [23] = species on record: Rattus norvegicus; test: Inhibition of mitochondrial respiration in isolated Wistar rat mitochondria assessed as decrease in succinate/ADP-stimulated respiratory control ratio up to 16 uM by Clark oxygen electrode method; assay type: functional
Rattus norvegicus [24] = species on record: Rattus norvegicus; test: Inhibition of ETC1 in isolated Wistar rat mitochondria assessed as reduction in NADH oxidation at 6 to 24 uM preincubated for 3 mins and measured after 5 mins by DB reagent based assay
Rattus norvegicus [25] = species on record: Rattus norvegicus; test: Inhibition of ETC3 in isolated Wistar rat mitochondria assessed as decrease in oxidized cyochrome-c reduction at 50 uM incubated for 3 to 5 mins and measured for up to 3 mins
Rattus norvegicus [26] = species on record: Rattus norvegicus; test: Inhibition of ETC4 in isolated Wistar rat mitochondria assessed as decrease in cyochrome-c oxidation at 5 to 15 uM incubated for 3 to 5 mins and measured for up to 3 mins
NB-4 [27] = test: Induction of ROS generation in human NB4 cells up to 1.2 uM up to 24 hrs by DCFH-DA staining based flow cytometry; assay type: functional, cell-based
NB-4 [28] = test: Induction of ROS generation in human NB4 cells up to 1.2 uM up to 24 hrs by DHE staining based flow cytometry; assay type: functional, cell-based
Rattus norvegicus [29] = species on record: Rattus norvegicus; test: Induction of mitochondrial swelling in isolated Wistar rat mitochondria at 30 uM in presence of EGTA; assay type: functional
Rattus norvegicus [30] = species on record: Rattus norvegicus; test: Induction of mitochondrial swelling in isolated Wistar rat mitochondria at 30 uM in presence of ruthenium red; assay type: functional
Rattus norvegicus [31] = species on record: Rattus norvegicus; test: Induction of mitochondrial membrane permeability in isolated Wistar rat mitochondria at 50 uM for 30 mins by TEM analysis; assay type: functional
NB-4 [32] = test: Induction of cytochrome-c release in human NB4 cells after 24 hrs by ELISA; assay type: functional, cell-based
NB-4 [33] = test: Induction of apoptosis in human NB4 cells assessed as early apoptotic cells after 24 hrs by Annexin V-FITC/propidium iodide staining based flow cytometry (reference value: 5%); assay type: functional
NB-4 [34] = test: Induction of apoptosis in human NB4 cells assessed as necrotic cells after 24 hrs by Annexin V-FITC/propidium iodide staining based flow cytometry (reference value: 0.1%); assay type: functional
NB-4 [35] = test: Induction of apoptosis in human NB4 cells assessed as live cells after 24 hrs in presence of Z-VAD-fmk by Annexin V-FITC/propidium iodide staining based flow cytometry (reference value: 92%); assay type: functional
NB-4 [36] = test: Induction of apoptosis in human NB4 cells assessed as early apoptotic cells after 24 hrs in presence of Z-VAD-fmk by Annexin V-FITC/propidium iodide staining based flow cytometry (reference value: 5%); assay type: functional
NB-4 [37] = test: Induction of apoptosis in human NB4 cells assessed as late apoptotic cells after 24 hrs in presence of Z-VAD-fmk by Annexin V-FITC/propidium iodide staining based flow cytometry (reference value: 2.9%); assay type: functional
NB-4 [38] = test: Induction of apoptosis in human NB4 cells assessed as necrotic cells after 24 hrs in presence of Z-VAD-fmk by Annexin V-FITC/propidium iodide staining based flow cytometry (reference value: 0.1%); assay type: functional

Compound: O=C(CC[P+](c1ccccc1)(c1ccccc1)c1ccccc1)Nc1ccc([As]2SCCCS2)cc1.[Cl-]
- IC50 (NB-4 [1]): 0.65 µM
- IC50 (HL-60 [2]): 3.58 µM
- IC50 (HeLa [3]): 9.05 µM
- IC50 (SGC-7901): 4.63 µM
- IC50 (NB-4 [4]): 0.51 µM
- IC50 (HL-60 [5]): 3.23 µM
- IC50 (HeLa [6]): 3.91 µM
- IC50 (MCF7): 1.46 µM
- IC50 (HEK293): 2.08 µM
- Activity (NB-4 [7]): 73.9%
- Activity (NB-4 [8]): 81.5%
- Activity (NB-4 [9]): inactive
- Activity (NB-4 [10]): inactive
- Activity (NB-4 [11]): inactive
- Activity (NB-4 [12]): Active
- K (Rattus norvegicus [13]): 4.82 ×10⁻³ /min
- K (Rattus norvegicus [14]): 3.82 ×10⁻³ /min
- K (Rattus norvegicus [15]): -9.35 ×10⁻³ /min
- K (Rattus norvegicus [16]): -9.13 ×10⁻³ /min
- Activity (Rattus norvegicus [17]): 112 W
- Activity (Rattus norvegicus [18]): 152 W
- TIME (Rattus norvegicus [19]): 47.6 h
- TIME (Rattus norvegicus [20]): 51.8 h
- Activity (Rattus norvegicus [21]): 11.2 J
- Activity (Rattus norvegicus [22]): 10.8 J
- inhibition (Rattus norvegicus [23]): Active
- inhibition (Rattus norvegicus [24]): Active
- inhibition (Rattus norvegicus [25]): Active
- inhibition (Rattus norvegicus [26]): Active
- Activity (NB-4 [27]): Active
- Activity (NB-4 [28]): Active
- Activity (Rattus norvegicus [29]): inactive
- Activity (Rattus norvegicus [30]): inactive
- Activity (Rattus norvegicus [31]): Active
- Activity (NB-4 [32]): Dose-dependent effect
- Activity (NB-4 [33]): 13.1%
- Activity (NB-4 [34]): 1.4%
- Activity (NB-4 [35]): 81.9%
- Activity (NB-4 [36]): 12.7%
- Activity (NB-4 [37]): 5.2%
- Activity (NB-4 [38]): 0.2%

— ChEMBL document CHEMBL4330144, “A mitochondria-targeted organic arsenical accelerates mitochondrial metabolic disorder and function injury” (Bioorg Med Chem, 2019)
